Measurements: PubChem BioAssay (NCI)
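Compound exposure: 48 hours, 5 concentrations, 96-well plates. TGI marks complete inhibition of growth.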

Columns and labels:
Assay in all cases: inhibition of tumour cell growth, NCI panel, 48 h
NCI-H226 lung = system: NCI-H226 lung
MDA-MB-231 breast = system: MDA-MB-231 breast
M14 melanoma = system: M14 melanoma
U251 CNS = system: U251 CNS
A498 renal = system: A498 renal
DU-145 prostate = system: DU-145 prostate
EKVX NSCLC = system: EKVX NSCLC
UACC-257 melanoma = system: UACC-257 melanoma
RPMI-8226 leukemia = system: RPMI-8226 leukemia
SNB-19 CNS = system: SNB-19 CNS
BT-549 breast = system: BT-549 breast
MDA-N = system: MDA-N
CCRF-CEM leukemia = system: CCRF-CEM leukemia
SF-539 CNS = system: SF-539 CNS
MDA-MB-435 = system: MDA-MB-435
ACHN renal = system: ACHN renal
HS 578T breast = system: HS 578T breast
SK-MEL-5 melanoma = system: SK-MEL-5 melanoma
OVCAR-5 ovarian = system: OVCAR-5 ovarian
SK-MEL-2 melanoma = system: SK-MEL-2 melanoma

Measured: TGI

O=C(O)c1cc2c(cc1CC(Cc1ccc3c(c1)CCCC3)C(=O)O)CCCC2 (stereo not given)
> 100 µM: all assays above
